Reference: PubChem BioAssay AID248 (DTP/NCI, 2004)
Where “and” joins values, the source holds several entries; their conditions need not be identical. Identical values can stand only once. Toxic doses and inconclusive results are not listed. No stated cut-off is given here; in the data, active means T/C of 150% or more; inactive means T/C below 125%.

Tested on: L1210 leukemia ip in BDF1 mice, survival T/C
Assay: NCI In Vivo Anticancer Drug Screen. Data for tumor model L1210 Leukemia (intraperitoneal) in B6D2F1 (BDF1) mice
Conditions: endpoint: mean survival time, higher = longer survival
Summary of the method: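 Transplanted-tumor mice were given test agent; controls received vehicle only. Survival readings from the two groups were divided (treated over control).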

[1] = dose: 12.5 mg/kg/injection, schedule: Q01DX009 (ip), vehicle: Klucel (hydroxypropylcellulose) (HPC)
[2] = dose: 25.0 mg/kg/injection, schedule: Q01DX009 (ip), vehicle: Klucel (hydroxypropylcellulose) (HPC)
[3] = dose: 25.0 mg/kg/injection, schedule: Q04DX002 (ip), vehicle: Klucel (hydroxypropylcellulose) (HPC)
[4] = dose: 50.0 mg/kg/injection, schedule: Q01DX009 (ip), vehicle: Klucel (hydroxypropylcellulose) (HPC)
[5] = dose: 50.0 mg/kg/injection, schedule: Q04DX002 (ip), vehicle: Klucel (hydroxypropylcellulose) (HPC)
[6] = dose: 100.0 mg/kg/injection, schedule: Q04DX002 (ip), vehicle: Klucel (hydroxypropylcellulose) (HPC)
[7] = dose: 200.0 mg/kg/injection, schedule: Q04DX002 (ip), vehicle: Klucel (hydroxypropylcellulose) (HPC)
[8] = dose: 400.0 mg/kg/injection, schedule: Q04DX002 (ip), vehicle: Klucel (hydroxypropylcellulose) (HPC)
[9] = dose: 100.0 mg/kg/injection, schedule: Q01DX009 (ip), vehicle: Klucel (hydroxypropylcellulose) (HPC)
[10] = dose: 100.0 mg/kg/injection, schedule: Q04DX003 (ip), vehicle: Klucel (hydroxypropylcellulose) (HPC)
[11] = dose: 200.0 mg/kg/injection, schedule: Q01DX009 (ip), vehicle: Klucel (hydroxypropylcellulose) (HPC)
[12] = dose: 200.0 mg/kg/injection, schedule: Q04DX003 (ip), vehicle: Klucel (hydroxypropylcellulose) (HPC)
[13] = dose: 400.0 mg/kg/injection, schedule: Q01DX009 (ip), vehicle: Klucel (hydroxypropylcellulose) (HPC)
[14] = dose: 400.0 mg/kg/injection, schedule: Q04DX003 (ip), vehicle: Klucel (hydroxypropylcellulose) (HPC)
[15] = dose: 50.0 mg/kg/injection, schedule: Q01DX001 (ip), vehicle: carboxymethylcellulose (CMC)
[16] = dose: 100.0 mg/kg/injection, schedule: Q01DX001 (ip), vehicle: carboxymethylcellulose (CMC)
[17] = dose: 200.0 mg/kg/injection, schedule: Q01DX001 (ip), vehicle: carboxymethylcellulose (CMC)
[18] = dose: 400.0 mg/kg/injection, schedule: Q01DX001 (ip), vehicle: carboxymethylcellulose (CMC)
[19] = dose: 50.0 mg/kg/injection, schedule: Q01DX001 (ip), vehicle: saline
[20] = dose: 100.0 mg/kg/injection, schedule: Q01DX001 (ip), vehicle: saline
[21] = dose: 400.0 mg/kg/injection, schedule: Q01DX001 (ip), vehicle: saline
[22] = dose: 200.0 mg/kg/injection, schedule: Q01DX001 (ip), vehicle: saline
[23] = dose: 100.0 mg/kg/injection, schedule: Q04DX003 (ip), vehicle: saline with Tween-80
[24] = dose: 200.0 mg/kg/injection, schedule: Q04DX003 (ip), vehicle: saline with Tween-80
[25] = dose: 400.0 mg/kg/injection, schedule: Q04DX003 (ip), vehicle: saline with Tween-80

Measured: T/C

O=C(CBr)c1ccc(Br)cc1
inactive: [1] 97 % of control | [2] 97 % of control | [3] 100 % of control | [4] 93 % of control | [5] 89 % of control | [6] 96 % of control and 107 % of control | [7] 111 % of control | [8] 92 % of control

Cc1ccc(C(=O)C=Nc2ccc(S(N)(=O)=O)cc2)cc1
inactive: dose: 12.5 mg/kg/injection, schedule: Q04DX002 (ip), vehicle: Klucel (hydroxypropylcellulose) (HPC) 94 % of control | [3] 115 % of control | [5] 97 % of control

Cc1cccc(OC(=O)NC2CCCCC2)c1
inactive: [9] 118 % of control | [10] 102 % of control | [11] 114 % of control | [12] 95 % of control | [13] 106 % of control | [14] 96 % of control

CC(C)[N+]1=C(/C=C/c2ccc3cccnc3c2O)C(C)(C)c2ccccc21
inactive: [15] 97 % of control | [16] 103 % of control | [17] 95 % of control | [18] 95 % of control

ClC1CCCCCCCCC1
inactive: [19] 122 % of control | [20] 95 % of control | [21] 92 % of control

O=C(CCCC(=O)NNC(=O)Nc1cccc(Cl)c1)NNC(=O)Nc1cccc(Cl)c1
inactive: [19] 96 % of control | [20] 106 % of control | [22] 106 % of control | [21] 93 % of control

CC(C)CCCC(C)CCCC(C)CCCCC(C)CCCC(C)CCCC(C)C (configuration not stated)
inactive: [6] 103 % of control | [7] 106 % of control | [8] 109 % of control

O=[N+]([O-])c1cc(N(c2ccccc2)c2ccccc2)c(Cl)cc1Cl
inactive: [16] 111 % of control | [17] 103 % of control | [18] 95 % of control

O=C(O)CSc1nc2ccccc2[nH]1
inactive: [23] 100 % of control | [24] 96 % of control | [25] 88 % of control

C=CC[N+](C)(CC=C)CC[N+](C)(CC=C)CC=C
inactive: dose: 50.0 mg/kg/injection, schedule: Q01DX009 (ip), vehicle: water 93 % of control | dose: 100.0 mg/kg/injection, schedule: Q01DX009 (ip), vehicle: water 95 % of control | dose: 100.0 mg/kg/injection, schedule: Q04DX003 (ip), vehicle: water 94 % of control | dose: 200.0 mg/kg/injection, schedule: Q04DX003 (ip), vehicle: water 96 % of control

c1ccc(C(c2ccccc2)C2CCCCC2)cc1
inactive: [10] 87 % of control | [12] 90 % of control

CC(=S)Nc1ccccc1
inactive: [2] 101 % of control | [4] 104 % of control | [9] 95 % of control

Oc1ccc2ccccc2c1N=Nc1nccs1
inactive: [1] 96 % of control | [2] 95 % of control | [4] 101 % of control | dose: 100.0 mg/kg/injection, schedule: Q01DX001 (ip), vehicle: Klucel (hydroxypropylcellulose) (HPC) 94 % of control | [10] 100 % of control | dose: 200.0 mg/kg/injection, schedule: Q01DX001 (ip), vehicle: Klucel (hydroxypropylcellulose) (HPC) 101 % of control | [12] 96 % of control | dose: 400.0 mg/kg/injection, schedule: Q01DX001 (ip), vehicle: Klucel (hydroxypropylcellulose) (HPC) 98 % of control | [14] 94 % of control

Oc1ccccc1C=Nc1ccc(I)cc1.Oc1ccccc1C=Nc1ccc(I)cc1.[Co]
inactive: [23] 96 % of control | [24] 108 % of control | [25] 102 % of control

c1ccc(SCc2ncc3cnccn23)cc1
inactive: [23] 97 % of control | [24] 94 % of control | [25] 103 % of control

Cc1ccc(S(=O)(=O)/C=C(/I)C(=O)c2ccccc2)cc1
inactive: [20] 95 % of control | [22] 93 % of control | [21] 95 % of control

CCP(=O)(CC(=O)O)c1ccccc1 (configuration not stated)
inactive: dose: 100.0 mg/kg/injection, schedule: Q04DX002 (ip), vehicle: saline with Tween-80 109 % of control | dose: 200.0 mg/kg/injection, schedule: Q04DX002 (ip), vehicle: saline with Tween-80 103 % of control | dose: 400.0 mg/kg/injection, schedule: Q04DX002 (ip), vehicle: saline with Tween-80 103 % of control

O=[N+]([O-])c1cc(CCl)ccc1CCl
inactive: dose: 50.0 mg/kg/injection, schedule: Q04DX003 (ip), vehicle: Klucel (hydroxypropylcellulose) (HPC) 86 % of control | [10] 92 % of control | [12] 98 % of control

Cc1c(/C=N/NC(N)=S)[nH]c(=O)[nH]c1=O
inactive: [20] 94 % of control | [22] 94 % of control | [21] 109 % of control

CN(Cc1ccccc1)C(=O)Nc1ccc(Cl)c(Cl)c1
inactive: [9] 97 % of control | [11] 110 % of control | [13] 101 % of control

COc1cc(/C=N/NC(C)=O)ccc1O
inactive: dose: 50.0 mg/kg/injection, schedule: Q01DX009 (ip), vehicle: saline with Tween-80 97 % of control | dose: 100.0 mg/kg/injection, schedule: Q01DX009 (ip), vehicle: saline with Tween-80 94 % of control | dose: 200.0 mg/kg/injection, schedule: Q01DX009 (ip), vehicle: saline with Tween-80 110 % of control

NC(=S)N/N=C1\C=CCCC1
inactive: [15] 111 % of control

c1cc(Sc2ccc(OCC3CO3)cc2)ccc1OCC1CO1 (configuration not stated)
inactive: dose: 100.0 mg/kg/injection, schedule: Q01DX001 (ip), vehicle: other 94 % of control | dose: 200.0 mg/kg/injection, schedule: Q01DX001 (ip), vehicle: other 97 % of control | dose: 400.0 mg/kg/injection, schedule: Q01DX001 (ip), vehicle: other 92 % of control

Cc1cc(C)c(Br)c(C)c1C
inactive: [20] 104 % of control | [22] 113 % of control | [21] 116 % of control

Br/C=C/C1CCCCC1
inactive: dose: 100.0 mg/kg/injection, schedule: Q01DX009 (ip), vehicle: acetone 104 % of control | dose: 100.0 mg/kg/injection, schedule: Q04DX003 (ip), vehicle: saline 105 % of control | dose: 200.0 mg/kg/injection, schedule: Q01DX009 (ip), vehicle: acetone 123 % of control | dose: 200.0 mg/kg/injection, schedule: Q04DX003 (ip), vehicle: saline 92 % of control | dose: 400.0 mg/kg/injection, schedule: Q01DX009 (ip), vehicle: acetone 107 % of control | dose: 400.0 mg/kg/injection, schedule: Q04DX003 (ip), vehicle: saline 92 % of control
